# In patent publication US9505744B2, “Solid state forms of vilazodone and vilazodone hydrochloride” (Assia Chemical Industries Ltd., priority 2011, dated 2016):
# Counter-ions that a name gives are not always drawn.
# Legend:
# Format in all cases: physicochemical
# Wettability = assay: Wettability
# [1] = Compressibility: pressing samples with 1 ton for 60 minutes; conditions: for appearance of palettes after pressing: pressed with 1 ton for 60 minutes
# [2] = Chemical and polymorphic stability on exposure to heating and mechanical pressure; conditions: when exposed to heating and to mechanical pressure; hydrochloride
# [3] = Hausner ratio (tapped density / poured (bulk) density)
# From the text: These properties enable improve tablet density uniformity, weight variation, homogeneity, die fill characteristics, dimensional control and ejection characteristics.
# [4] = Polymorphic stability on exposure to humidity; conditions: 100% relative humidity for at least a few moths
# From the text: Form Lambda doesn't convert to another polymorph when exposed to humidity.
Compound,degree of wettability (Wettability),compressibility ([1]; API pressed into a palette),appearance of palettes after pressing [1],chemical and polymorphic stability [2],Hausner ratio (ratio between tapped density and poured (bulk) density) [3],conversion to another polymorph when exposed to humidity [4]
"N#Cc1ccc2[nH]cc(CCCCN3CCN(c4ccc5oc(C(N)=O)cc5c4)CC3)c2c1 [Form Alpha, Vilazodone hydrochloride]",enhanced degree of wettability,excellent compressibility,high structural order and shape without visible lamination on the surface or breaking of the palettes,chemically and polymorphically stable,,
"N#Cc1ccc2[nH]cc(CCCCN3CCN(c4ccc5oc(C(N)=O)cc5c4)CC3)c2c1 [Form Lambda, Vilazodone hydrochloride]",,,,,favorable Hausner ratio,remains unchanged
"N#Cc1ccc2[nH]cc(CCCCN3CCN(c4ccc5oc(C(N)=O)cc5c4)CC3)c2c1 [Form Mu, Vilazodone hydrochloride]",,,high structural order and shape without visible lamination on the surface or breaking of the palettes,high chemical and polymorphic stability,,
